Experimental data reported in patent US9757378B2, “Methods to modulate acute myeloid leukemia stem/progenitor cell expansion and/or differentiation” (UNIVERSITE DE MONTREAL, priority 2013, dated 2017).

Legend:
primary human AML cells [1] = assay: Secondary screen: dose response, five serial dilutions (CD34/CD15 flow cytometry); type: cell-based; design: key to 2ndary screen criteria fulfilled: 0 = no; 1 = yes; conditions: for 2ndary screen criteria fulfilled: ≧50% increase CD34+CD15− (%) and cell counts and ≧50% gated cells in at least one dose; for % increase CD34+CD15− (%) 2ndary screen / % increase CD34+CD15− (cell counts) 2ndary screen: at optimal concentration, compared to DMSO
Procedure: In the primary screen cells were plated in transparent 384-wellplates (Greiner, 781182) at a density of 5,000 cells in 50 μl final volume per well. Compounds were tested at 2 μM (commercial libraries) or 1 μg/ml (Medicinal Chemistry Facility, IRIC). […] For validation experiments AML cells were grown in 384-well plates with 3-8 replicates per condition.
Flow cytometry was performed on an LSR™ II cytometer equipped with an HTS-device (BD Bioscience, Primary and Secondary screens and in vitro validation experiments) or on a BD Canto™ II cytometer (BD Bioscience, Xenotransplantation and CellTrace Violet™ experiments). Cells were stained for 30 minutes at 4° C. protected from light if not otherwise indicated (CellTrace Violet™ staining). The following flow cytometry-antibodies were used: CD45 Pacific Blue (BioLegend 304029), CD33 PE (BD Bioscience 555450), CD34 APC (BD Bioscience 555824), CD3 FITC (BD Bioscience 555332), CD19 PE-Cy7 (BD Bioscience 557835), CD15 PE (BD Bioscience 555401), and anti-mouse CD45.1 APC-efluor 730 (eBioscience 47-0453-82). CD34 intensities in flow cytometry plots were set at high levels on day 0 to allow tracing of non-predictable decreases of intensities during 7 days in culture.

primary human AML cells [2] = assay: Primary screen: differentiation of primary human AML cells in vitro (CD34/CD15, HTS flow cytometry); conditions: for percent gated cells (viability): 2 μM (commercial libraries) or 1 μg/ml (IRIC); for % increase CD34+ (%) / % increase CD34+ (cell counts) / % increase CD34+CD15− (cell counts): compared to DMSO; for % increase CD34+CD15− (%): compared to DMSO ((compound − DMSO)/DMSO*100)
Procedure: AML cells were thawed in 37° C. water bath and 1:10 diluted in prewarmed Iscove's modified Dulbecco's medium (IMDM) containing 20% FBS and DNase 100 μg/ml. […] When compounds were added to the culture medium, final DMSO concentrations were 0.1% in all in vitro experiments and 0.01% when cultured cells were transplanted into NSG-mice.
Compounds were tested at 2 μM (commercial libraries) or 1 μg/ml (Medicinal Chemistry Facility, IRIC). […] For validation experiments AML cells were grown in 384-well plates with 3-8 replicates per condition.
Flow cytometry was performed on an LSR™ II cytometer equipped with an HTS-device (BD Bioscience, Primary and Secondary screens and in vitro validation experiments) or on a BD Canto™ II cytometer (BD Bioscience, Xenotransplantation and CellTrace Violet™ experiments). Cells were stained for 30 minutes at 4° C. protected from light if not otherwise indicated (CellTrace Violet™ staining). […] CD34 intensities in flow cytometry plots were set at high levels on day 0 to allow tracing of non-predictable decreases of intensities during 7 days in culture.

O=c1c(O)c(-c2ccc(O)cc2)oc2cc(O)cc(O)c12 [UM0118952, Kaempferol]
2ndary screen criteria fulfilled (primary human AML cells [1]): 0
percent gated cells (viability) (primary human AML cells [2]): 78.90%
% increase CD34+ (%) (primary human AML cells [2]): 26.34%
% increase CD34+ (cell counts) (primary human AML cells [2]): −2.29%
% increase CD34+CD15− (cell counts) (primary human AML cells [2]): 44.57%
% increase CD34+CD15− (%) (primary human AML cells [2]): 87.18%

COc1ccc(-c2coc3c(O)c(OC)ccc3c2=O)cc1 [UM0121179, Retusin 7-Methylether]
% increase CD34+CD15− (%) 2ndary screen (primary human AML cells [1]): 218.84%
% increase CD34+CD15− (cell counts) 2ndary screen (primary human AML cells [1]): 199.22%
2ndary screen criteria fulfilled (primary human AML cells [1]): 1
percent gated cells (viability) (primary human AML cells [2]): 82.10%
% increase CD34+ (%) (primary human AML cells [2]): 58.87%
% increase CD34+ (cell counts) (primary human AML cells [2]): 59.80%
% increase CD34+CD15− (cell counts) (primary human AML cells [2]): 125.38%
% increase CD34+CD15− (%) (primary human AML cells [2]): 124.10%

O=C(Nc1ccc2c(c1)OCCO2)c1sc2ccccc2c1Cl [UM0045609, 3-chloro-N-(2,3-dihydro-1,4-benzodioxin-6-yl)-1-benzithiophene-2-carboxamide]
% increase CD34+CD15− (%) 2ndary screen (primary human AML cells [1]): 204.83%
% increase CD34+CD15− (cell counts) 2ndary screen (primary human AML cells [1]): 198.60%
2ndary screen criteria fulfilled (primary human AML cells [1]): 1
% increase CD34+ (%) (primary human AML cells [2]): 46.63%
% increase CD34+ (cell counts) (primary human AML cells [2]): 56.89%
% increase CD34+CD15− (cell counts) (primary human AML cells [2]): 109.14%
% increase CD34+CD15− (%) (primary human AML cells [2]): 94.85%

O[C@H]1[C@H]2[C@H](O)CCCN2C[C@H]1O [UM0119223, Swainsonine]
2ndary screen criteria fulfilled (primary human AML cells [1]): 0
percent gated cells (viability) (primary human AML cells [2]): 81.90%
% increase CD34+ (%) (primary human AML cells [2]): 30.00%
% increase CD34+ (cell counts) (primary human AML cells [2]): −43.81%
% increase CD34+CD15− (cell counts) (primary human AML cells [2]): −22.20%
% increase CD34+CD15− (%) (primary human AML cells [2]): 79.57%

COc1ccc(-c2oc3cc(O)cc(O)c3c(=O)c2O)cc1 [UM0119298, Kaempferide]
% increase CD34+CD15− (%) 2ndary screen (primary human AML cells [1]): 105.80%
% increase CD34+CD15− (cell counts) 2ndary screen (primary human AML cells [1]): 114.93%
2ndary screen criteria fulfilled (primary human AML cells [1]): 1
percent gated cells (viability) (primary human AML cells [2]): 82.40%
% increase CD34+ (%) (primary human AML cells [2]): 42.31%
% increase CD34+ (cell counts) (primary human AML cells [2]): 25.55%
% increase CD34+CD15− (cell counts) (primary human AML cells [2]): 75.15%
% increase CD34+CD15− (%) (primary human AML cells [2]): 98.71%

O=c1cc(-c2ccccc2)oc2cc(O)cc(O)c12 [UM0118950, Chrysin]
% increase CD34+CD15− (%) 2ndary screen (primary human AML cells [1]): 194.69%
% increase CD34+CD15− (cell counts) 2ndary screen (primary human AML cells [1]): 172.16%
2ndary screen criteria fulfilled (primary human AML cells [1]): 1
% increase CD34+ (%) (primary human AML cells [2]): 47.05%
% increase CD34+ (cell counts) (primary human AML cells [2]): 48.57%
% increase CD34+CD15− (cell counts) (primary human AML cells [2]): 108.30%
% increase CD34+CD15− (%) (primary human AML cells [2]): 105.68%

CCCCCCC(=O)CCCCCC/C=C/C[C@@H](O)[C@H](O)[C@@](N)(CO)C(=O)O [UM0119199, Myriocin]
2ndary screen criteria fulfilled (primary human AML cells [1]): 0
percent gated cells (viability) (primary human AML cells [2]): 79.90%
% increase CD34+ (%) (primary human AML cells [2]): 1.19%
% increase CD34+ (cell counts) (primary human AML cells [2]): −36.05%
% increase CD34+CD15− (cell counts) (primary human AML cells [2]): 9.44%
% increase CD34+CD15− (%) (primary human AML cells [2]): 72.63%

Benzalkonium chloride [UM0120664]
2ndary screen criteria fulfilled (primary human AML cells [1]): 0
% increase CD34+ (%) (primary human AML cells [2]): 45.92%
% increase CD34+ (cell counts) (primary human AML cells [2]): −73.74%
% increase CD34+CD15− (cell counts) (primary human AML cells [2]): −57.89%
% increase CD34+CD15− (%) (primary human AML cells [2]): 133.07%

COc1cccc2oc(-c3ccccc3)cc(=O)c12 [UM0113898, 5-Methoxyflavone]
% increase CD34+CD15− (%) 2ndary screen (primary human AML cells [1]): 105.80%
% increase CD34+CD15− (cell counts) 2ndary screen (primary human AML cells [1]): 119.91%
2ndary screen criteria fulfilled (primary human AML cells [1]): 1
% increase CD34+ (%) (primary human AML cells [2]): 36.28%
% increase CD34+ (cell counts) (primary human AML cells [2]): 20.92%
% increase CD34+CD15− (cell counts) (primary human AML cells [2]): 61.47%
% increase CD34+CD15− (%) (primary human AML cells [2]): 82.42%

COc1cc(-c2oc3cc(O)cc(O)c3c(=O)c2O)ccc1O [UM0119319, Isorhamnetine]
2ndary screen criteria fulfilled (primary human AML cells [1]): 0
% increase CD34+ (%) (primary human AML cells [2]): 37.41%
% increase CD34+ (cell counts) (primary human AML cells [2]): 28.67%
% increase CD34+CD15− (cell counts) (primary human AML cells [2]): 62.94%
% increase CD34+CD15− (%) (primary human AML cells [2]): 74.28%

COc1c(-c2ccccc2)oc2c(OC)cccc2c1=O [UM0121168, 3,8-Dimethoxyflavone]
percent gated cells (viability) (primary human AML cells [2]): 80.80%
% increase CD34+ (%) (primary human AML cells [2]): 29.05%
% increase CD34+ (cell counts) (primary human AML cells [2]): 24.97%
% increase CD34+CD15− (cell counts) (primary human AML cells [2]): 53.85%
% increase CD34+CD15− (%) (primary human AML cells [2]): 58.96%

COc1ccc(-c2cc(=O)c3c(O)cc(O)cc3o2)cc1O [UM0119400, Diosmetine]
2ndary screen criteria fulfilled (primary human AML cells [1]): 0
% increase CD34+ (%) (primary human AML cells [2]): 31.48%
% increase CD34+ (cell counts) (primary human AML cells [2]): −19.72%
% increase CD34+CD15− (cell counts) (primary human AML cells [2]): 20.75%
% increase CD34+CD15− (%) (primary human AML cells [2]): 97.56%

N[C@@H](Cc1c[nH]c2ccccc12)C(=O)O [Tryptophan]
CD34+CD15− cell counts compared to DMSO (primary human AML cells [2]; in words): further reduced

O=c1c(O)c(-c2ccccc2)oc2cc(O)cc(O)c12 [UM0119448, Galangine]
% increase CD34+ (cell counts) (primary human AML cells [2]): −0.57%
% increase CD34+CD15− (cell counts) (primary human AML cells [2]): 23.06%
% increase CD34+CD15− (%) (primary human AML cells [2]): 60.64%

2′-beta-Dihydrochalcone [UM0120960]
% increase CD34+ (%) (primary human AML cells [2]): 24.69%
% increase CD34+ (cell counts) (primary human AML cells [2]): 8.21%
% increase CD34+CD15− (cell counts) (primary human AML cells [2]): 41.99%
% increase CD34+CD15− (%) (primary human AML cells [2]): 63.62%

O=c1c2ccccc2oc2ccccc12 [UM0120986, Xanthone]
2ndary screen criteria fulfilled (primary human AML cells [1]): 0
percent gated cells (viability) (primary human AML cells [2]): 81.40%
% increase CD34+ (%) (primary human AML cells [2]): 34.82%
% increase CD34+ (cell counts) (primary human AML cells [2]): 28.81%
% increase CD34+CD15− (cell counts) (primary human AML cells [2]): 86.26%
% increase CD34+CD15− (%) (primary human AML cells [2]): 94.85%

Oc1cc(O)cc(/C=C/c2ccccc2)c1 [UM0120964, Pinosylvin]
percent gated cells (viability) (primary human AML cells [2]): 69.90%
% increase CD34+ (%) (primary human AML cells [2]): 24.20%
% increase CD34+ (cell counts) (primary human AML cells [2]): 8.62%
% increase CD34+CD15− (cell counts) (primary human AML cells [2]): 39.69%
% increase CD34+CD15− (%) (primary human AML cells [2]): 59.46%

CC[C@H](C)C(=O)O[C@H]1C[C@@H](C)C=C2C=C[C@H](C)[C@H](CC[C@@H]3C[C@@H](O)CC(=O)O3)[C@H]21 [UM0118699, Lovastatin]
percent gated cells (viability) (primary human AML cells [2]): 81.00%
% increase CD34+ (%) (primary human AML cells [2]): 1.88%
% increase CD34+ (cell counts) (primary human AML cells [2]): −14.30%
% increase CD34+CD15− (cell counts) (primary human AML cells [2]): 36.94%
% increase CD34+CD15− (%) (primary human AML cells [2]): 62.41%

CC(=O)Oc1ccc(-c2cc(=O)c3c(OC(C)=O)cc(OC(C)=O)cc3o2)cc1 [UM0121171, Apigenin triacetate]
percent gated cells (viability) (primary human AML cells [2]): 80.10%
% increase CD34+ (%) (primary human AML cells [2]): 48.36%
% increase CD34+ (cell counts) (primary human AML cells [2]): 17.48%
% increase CD34+CD15− (cell counts) (primary human AML cells [2]): 31.61%
% increase CD34+CD15− (%) (primary human AML cells [2]): 66.25%

COc1c(O)cc2oc(-c3ccc(O)c(O)c3)cc(=O)c2c1O [UM0119305, 6-Methoxyluteolin]
2ndary screen criteria fulfilled (primary human AML cells [1]): 0
percent gated cells (viability) (primary human AML cells [2]): 83.60%
% increase CD34+ (%) (primary human AML cells [2]): 31.39%
% increase CD34+ (cell counts) (primary human AML cells [2]): −2.77%
% increase CD34+CD15− (cell counts) (primary human AML cells [2]): 40.01%
% increase CD34+CD15− (%) (primary human AML cells [2]): 88.83%

C[C@@H]1Cc2c(Cl)cc(C(=O)N[C@@H](Cc3ccccc3)C(=O)O)c(O)c2C(=O)O1 [UM0119328, Ochratoxin A]
2ndary screen criteria fulfilled (primary human AML cells [1]): 0
percent gated cells (viability) (primary human AML cells [2]): 82.10%
% increase CD34+ (%) (primary human AML cells [2]): 14.82%
% increase CD34+ (cell counts) (primary human AML cells [2]): 1.28%
% increase CD34+CD15− (cell counts) (primary human AML cells [2]): 34.37%
% increase CD34+CD15− (%) (primary human AML cells [2]): 52.56%

COc1cc(-c2oc3cc(O)ccc3c(=O)c2O)ccc1O [UM0119468, Geraldol]
percent gated cells (viability) (primary human AML cells [2]): 78.50%
% increase CD34+ (%) (primary human AML cells [2]): 25.29%
% increase CD34+ (cell counts) (primary human AML cells [2]): −41.47%
% increase CD34+CD15− (cell counts) (primary human AML cells [2]): −23.14%
% increase CD34+CD15− (%) (primary human AML cells [2]): 64.06%

O=c1cc(-c2ccc(O)cc2)oc2cc(O)cc(O)c12 [UM0118614, Apigenin]
% increase CD34+ (%) (primary human AML cells [2]): 20.12%
% increase CD34+ (cell counts) (primary human AML cells [2]): 22.02%
% increase CD34+CD15− (cell counts) (primary human AML cells [2]): 66.30%
% increase CD34+CD15− (%) (primary human AML cells [2]): 63.93%

Verteporfin [UM0119121]
% increase CD34+ (%) (primary human AML cells [2]): 15.38%
% increase CD34+ (cell counts) (primary human AML cells [2]): 33.14%
% increase CD34+CD15− (cell counts) (primary human AML cells [2]): 58.17%
% increase CD34+CD15− (%) (primary human AML cells [2]): 37.29%

COc1ccc(C2CC(=O)c3ccc(OC)cc3O2)cc1 (centres unmarked) [UM0120851, Liquiritigenin dimethylether]
percent gated cells (viability) (primary human AML cells [2]): 81.20%
% increase CD34+ (%) (primary human AML cells [2]): 34.97%
% increase CD34+ (cell counts) (primary human AML cells [2]): 31.66%
% increase CD34+CD15− (cell counts) (primary human AML cells [2]): 59.21%
% increase CD34+CD15− (%) (primary human AML cells [2]): 63.25%
